Laboratory results as given in patent US11690897B2, “Salt inducible kinase inhibitors for enhancing fertility” (The Board of Trustees of the University of Illinois, priority 2019, dated 2023).

Tests used:
[1] = tested on: rat granulosa cells; assay: Cyp19a1 (aromatase) mRNA in primary rat granulosa cells, qPCR relative to Rpl19; assay type: cell-based; conditions: for FSH-stimulation of aromatase (Cyp19a1 mRNA): FSH plus inhibitor vs FSH, 48 hours, rat granulosa cells (rat and mouse)
Description: Cyp19a1 mRNA levels were quantified 48 hours later and expressed as relative levels to ribosomal L19 protein (Rp119).
FIG. 5A, Expression of each SIK isoform in rat granulosa cells exposed to scrambled oligos (shSCR) or anti-SIK1 (shSIK1), SIK2 (shSIK2), or SIK3 (shSIK3) shRNAs. *p<0.05, **p<0.01, t-test, n=3. FIG. 5B, Cyp19a1, STARD1, and CYP11a1 relative mRNA expression levels after exposure to shSCR, shSIK1, shSIK2, or shSIK3. […] FIG. 5C, Inverse correlation between SIK2 knockdown with CYP19a1 expression in rat granulosa cells.
(§1) Cyp19a1 mRNA levels were quantified 48 hours later and expressed as relative levels to Rp119. Different letters represent significant differences (mean±SEM, n=5, one-way ANOVA followed by Tukey, p<0.05). FIG. 8B, Immature 23-day-old female mice were injected i.p. with YKL or vehicle (PBS). Two hours later, animals were treated with PMSG or PMSG plus YKL. The expression of CYP19a1, CYP11a1, and STARD1 was quantified 48 hours later. *p<0.05, t-test, n=7.
Rat Granulosa Cells. Rat granulosa cells were isolated from immature rats treated with estradiol for three days. Cells were cultured and treated as described for human granulosa cells. Rat experiments were approved by the Biologic Resources Laboratory (BRL) of the University of Illinois at Chicago.
(§2) mRNA Quantification. Total RNA was isolated at the end of each experiment using TRIzol™ reagent (Invitrogen) according to the manufacturer's protocol. The isolated RNA was reverse-transcribed using anchored oligo-dT primers (IDT, Coralville, Iowa) and Moloney Murine Leukemia Virus reverse transcriptase (Invitrogen) at 37° C. for 1 hour. The resulting cDNA was diluted with water to a final volume of 100 μl and 5 μl of diluted cDNA was used for each qPCR reaction. Gene expression is reported relative to ribosomal protein L19 mRNA (Rp119).

[2] = tested on: granulosa cells; assay: In vivo treatment of immature mice with SIK inhibitor before PMSG, granulosa cell mRNA; conditions: immature female mice, 10 mg/kg i.p. 2 h before and with PMSG, 48 hours
Description: as §1
In vivo Treatment with SIK Inhibitors. […] Controls were injected with 4 IU PMSG alone. granulosa cells were collected 48 hours after PMSG.
as §2

[3] = tested on: SIK; conditions: in vivo; cited from earlier work
[4] = tested on: Mouse granulosa cells; assay: Estradiol production by granulosa cells (ELISA); assay type: cell-based; conditions: FSH plus inhibitor, 48 hours
Description: Estradiol was determined by ELISA.
Estradiol Measurement. Cell culture medium used for steroid determinations by ELISA (DRG Instruments; RRID: AB_2756386)) following manufacturer's instructions.

[5] = tested on: primary human granulosa cells; assay: mRNA expression of FSH target genes in primary human granulosa cells; assay type: cell-based
Text: Different letters represent significant differences (mean±SEM, N≥7, one-way ANOVA followed by Tukey, p<0.05).
Human Granulosa Cells. Human cells were collected from the follicular aspirates of women undergoing in vitro fertilization treatment at the University of Illinois at Chicago Fertility Center, under Institute Review Board approval. Informed consents were obtained from all women. In a subset of patients, additional information was collected to compare the effect of SIK inhibition in patients with different etiologies. Cells were transported immediately to the laboratory where they were dispersed by hyaluronidase digestion (8 IU/μl) and then centrifuged at 500×g for 5 minutes. Cells were incubated at room temperature in red blood cell lysis buffer for 2 minutes to eliminate contaminating erythrocytes. The cells were again centrifuged at 500×g for 5 minutes and suspended in 0.5 ml of serum-free DMEM/F12-0.25% BSA medium containing antibiotics. To investigate mRNA expression, cells were plated at a density of 30000 cells/well in 24-well plates coated with reconstituted basement membrane sold under the tradename Matrigel® (DB Biosciences). To investigate protein expression, cells were plated at a density of 200000 cells/well in 6-well plates coated with reconstituted basement membrane sold under the tradename Matrigel® (DB Biosciences). […] Each data point reflects a result obtained from individual patients. Cells from each patient were cultured separately.
as §2

[6] = tested on: human granulosa cells; assay: CYP19A1 protein (western blot) in granulosa cells of IVF patients with different etiologies; assay type: cell-based; conditions: patient with anovulation, HG alone or in the presence of FSH
Description: Primary granulosa cells were obtained from patients with normal ovarian function (left panel) or patients diagnosed with polycystic ovarian syndrome or anovulation (right panel). […] The intensity of the CYP19a1 and BACT bands was quantified, and the data expressed as a ratio between aromatase and BACT. Different letters represent significant differences, one-way ANOVA followed by Tukey test, p<0.05, (n=5).
Human Granulosa Cells. Human cells were collected from the follicular aspirates of women undergoing in vitro fertilization treatment at the University of Illinois at Chicago Fertility Center, under Institute Review Board approval. Informed consents were obtained from all women. […] Cells were transported immediately to the laboratory where they were dispersed by hyaluronidase digestion (8 IU/μl) and then centrifuged at 500×g for 5 minutes. Cells were incubated at room temperature in red blood cell lysis buffer for 2 minutes to eliminate contaminating erythrocytes. The cells were again centrifuged at 500×g for 5 minutes and suspended in 0.5 ml of serum-free DMEM/F12-0.25% BSA medium containing antibiotics. […] To investigate protein expression, cells were plated at a density of 200000 cells/well in 6-well plates coated with reconstituted basement membrane sold under the tradename Matrigel® (DB Biosciences). […] Each data point reflects a result obtained from individual patients. […]

| Structure (SMILES) | FSH-stimulation of aromatase (Cyp19a1 mRNA) [1] | Cyp11a1 mRNA induction by PMSG [2] | Stimulatory effect of PMSG on Cyp19a1 mRNA [2] | Stimulatory effect of PMSG on Stard1 mRNA [2] | Phosphorylation of a known SIK substrate [3] | Cyp19a1 mRNA levels, inhibitor alone ([1]; absence of FSH, HG at 1 or 3 μM) | Stimulation of estradiol production by FSH [4] | IGF2 mRNA expression, FSH plus inhibitor vs FSH alone ([5]; 48 hours) | IGF2 mRNA levels, inhibitor alone vs controls ([5]; absence of FSH) | CYP11A1 mRNA levels, inhibitor alone ([5]; no FSH) | STARD1 mRNA levels, inhibitor alone ([5]; no FSH) | CYP19A1 levels [6] | CYP19A1 mRNA levels, increase vs FSH only ([5]; FSH plus inhibitor, n=16 patients, P<0.0001) [fold] | CYP19A1 mRNA levels, inhibitor alone ([5]; no FSH) |
| --- | --- | --- | --- | --- | --- | --- | --- | --- | --- | --- | --- | --- | --- | --- |
| COc1ccc(N2C(=O)N(c3c(C)cccc3Cl)Cc3cnc(Nc4ccc(C5CCN(C)CC5)cc4OC)nc32)nc1 [YKL-05-099] | enhances the stimulatory effect of FSH on Cyp19a1 mRNA expression in a concentration-dependent manner | only a trend to increase Cyp11a1 mRNA induction | enhanced the stimulatory effect of PMSG on Cyp19a1 and Stard1 significantly | enhanced the stimulatory effect of PMSG on Cyp19a1 and Stard1 significantly | reduces phosphorylation of a known SIK substrate |  |  |  |  |  |  |  |  |  |
| COc1ccc(N(C(=O)Nc2c(C)cccc2C)c2cc(Nc3ccc(N4CCN(C)CC4)cc3)ncn2)c(OC)c1 [HG-9-91-01] | potentiated FSH-stimulation of aromatase in a concentration-dependent manner |  |  |  |  | increased Cyp19a1 mRNA levels | potentiated the stimulation of estradiol production by FSH in a dose-dependent manner | tended to be higher | increased IGF2 mRNA levels significantly | enough to increase STARD1 and CYP11A1 mRNA levels | enough to increase STARD1 and CYP11A1 mRNA levels | stimulated CYP19A1 strongly |  |  |
| O=C(NCCCNc1nc(Nc2cccc(CN3CCOCC3)c2)ncc1C1CC1)C1CCC1 [MRT67307] | Comparable findings |  |  |  |  |  | potentiated the stimulation of estradiol production by FSH in a dose-dependent manner |  |  |  |  |  | 3 | did not affect CYP19A1 mRNA levels |
